Experimental findings from patent publication US6448288B1, “Cannabinoid drugs” (University of Massachusetts, priority 2000, dated 2002) are described below.

Experiment [1] in a line: Stereospecificity of inhibition of cell proliferation (D-isomer vs L-isomer). It counts as cell-based. To be noted: 25 μM dose, preparation 95% enriched in D-isomer, p<0.001, FIG. 2.
The subject of experiment [2] is C6 glioma cells. In words: MTT cell proliferation assay, C6 glioma cells. It is filed as cell-based. To be noted: for IC50: MTT assay, FIG. 1, read-out: IC50, inhibition of C6 glioma cells; for inhibition at 25 µM: 48 h, two days, three different experiments. A general note: Formazan colour is commonly taken as a measure of viable cells.
Experiment [3] relates to U87. In words: MTT assay, human cancer cell line U87 (brain). Conditions: U87, 25 μM, 48 hour MTT assay; for inhibition at 25 µM: Homo sapiens, U-87 MG, read-out: Percent inhibition of human cancer cell line growth. It counts as cell-based.
In experiment [4] the test system is U373. Description: MTT assay, human cancer cell line U373 (brain). It counts as cell-based. To be noted: U373, 25 μM, 48 hour MTT assay; for inhibition at 25 µM: Homo sapiens, U373 MG, read-out: Percent inhibition of human cancer cell line growth.
Experiment [5] concerns U118. Description: MTT assay, human cancer cell line U118 (brain). It is filed as cell-based. Conditions: U118, 25 μM, 48 hour MTT assay; for inhibition at 25 µM: Homo sapiens, read-out: Percent inhibition of human cancer cell line growth.
The test system of experiment [6] is A172. In words: MTT assay, human cancer cell line A172 (brain). It counts as cell-based. Conditions: A172, 25 μM, 48 hour MTT assay; for inhibition at 25 µM: Homo sapiens, A 172, read-out: Percent inhibition of human cancer cell line growth.
The test system of experiment [7] is HS578T. Description: MTT assay, human cancer cell line HS578T (breast). It counts as cell-based. Conditions: 48 hour MTT assay; for inhibition at 25 µM: Homo sapiens, Hs-578T, read-out: Percent inhibition of human cancer cell line growth.
Experiment [8] concerns HT1376. Description: MTT assay, human cancer cell line HT1376 (bladder). It is filed as cell-based. To be noted: HT1376, 25 μM, 48 hour MTT assay; for inhibition at 25 µM: Homo sapiens, HT-1376, read-out: Percent inhibition of human cancer cell line growth.
The subject of experiment [9] is J82. Description: MTT assay, human cancer cell line J82 (bladder). To be noted: J82, 25 μM, 48 hour MTT assay; for inhibition at 25 µM: Homo sapiens, read-out: Percent inhibition of human cancer cell line growth. It counts as cell-based.
Experiment [10] deals with Calu6. Description: MTT assay, human cancer cell line Calu6 (lung). It is filed as cell-based. Conditions: Calu6, 25 μM, 48 hour MTT assay; for inhibition at 25 µM: Homo sapiens, Calu-6, read-out: Percent inhibition of human cancer cell line growth.
Experiment [11] concerns Du145. In words: MTT assay, human cancer cell line Du145 (prostate). To be noted: Du145, 25 μM, 48 hour MTT assay; for inhibition at 25 µM: Homo sapiens, DU-145, read-out: Percent inhibition of human cancer cell line growth. It is filed as cell-based.
Experiment [12] concerns PC3. Description: MTT assay, human cancer cell line PC3 (prostate). It counts as cell-based. Conditions: PC3, 25 μM, 48 hour MTT assay; for inhibition at 25 µM: Homo sapiens, PC-3, read-out: Percent inhibition of human cancer cell line growth.
For experiment [13], the system named is human cell lines derived from a variety of cancer types (brain, breast, bladder, lung, and prostate). In words: MTT assay, all ten human cancer cell lines together. Conditions: for inhibition at 25 µM: read-out: inhibition levels (mean±SD). It is filed as cell-based.
For experiment [14], the system named is C6 cells. In words: Cell size and refractile bodies by phase microscopy, C6 cells. It counts as cell-based. To be noted: for cells with one or more refractile bodies / mean number of refractile bodies per cell: C6 cells, after 48 hours.
The subject of experiment [15] is WI38 cells. In words: Cell proliferation assay, normal fibroblast cell line WI38. It counts as cell-based, rat. To be noted: WI-38, 48 h, two days, three different experiments.
The test system of experiment [16] is C6 glioma cells. Description: Co-incubation of C6 glioma cells with a specific CB1 antagonist. It is filed as cell-based. To be noted: 3.2 μM of a specific CB1 antagonist.
In experiment [17] the test system is C6 glioma cells. In words: Flow cytometry/cell cycle analysis. It counts as cell-based. To be noted: 25 μM. Here is the method:
Flow cytometry/cell cycle analysis. For flow cytometry, cells were grown in low serum (0.5%) for two days to synchronize cells in G0/G1, after which they were placed in high serum (10%) for two days. The cells were then labeled with propidium iodide and fixed in 4% paraformaldehyde. Cells were examined using a MoFlo Facs sorter for DNA content.
For orientation: A flow cytometer gives signals particle by particle.

Experiment [18] has as its system W138 cells. In words: Refractile bodies by phase microscopy, W138 cells. It is filed as cell-based. Conditions: same length of time and dosage.
For experiment [19], the system named is C6 glioma cells. In words: Electron microscopy and trypan blue exclusion of treated cells. It counts as cell-based.
Experiment [20] deals with C6 cells. In words: Lipid incorporation assay (14C-arachidonic acid). It is filed as cell-based. To be noted: 25 μM, 48 hours.
Experiment [21] relates to Protein kinase C (PKC). In words: Protein kinase C (PKC) assay in C6 cells. It is filed as cell-based. Conditions: 25 μM. As for the experimental part:
Protein kinase C (PKC) assay. Cells were transferred into MEM media (0.5% serum) and cultured overnight. The next day, cells were treated with either DMSO or 25 μM ajulemic acid for the specified incubation time, after which the plates were trypsinized. 5×10^6 trypsinized cells were assayed for PKC activity using a kit (Calbiochem, cat. no. 53984).

For experiment [22], the system named is human glioma cell line U87. Description: In vivo subcutaneous U87 tumor model in nude mice. On the set-up: species or system male nu/nu BALBc mice. Here is the method: In vivo subcutaneous model. 10^6 U87 cells were injected into the right […] of male nu/nu BALBc mice (Charles River). Two days after inoculation, the mice received either 0.1 mg/kg ajulemic acid in 0.05 ml of safflower oil, or 0.05 ml safflower oil by oral administration. Thereafter, identical dosings were performed on each Monday, Wednesday, and Friday. When visible tumors appeared, the size of the tumors were estimated by averaging the values of two roughly perpendicular diameters measurements. Visible tumors were measured on the days of drug administration.

[23] abbreviates: 48 hours, mean over the ten human lines.
[24] abbreviates: two days in 10% serum after synchronization.
[25] abbreviates: two days in 10% serum after synchronization, listed as AJA.

Read-outs that look alike come from different tables or passages of the source. Bounds are passed on as bounds.

As usually defined, the IC50 is the point on the concentration scale where inhibition reaches its midpoint. A word on the inhibition: it is the percentage by which the read-out fell short of the control.

As to `CCCCCCC(C)(C)c1cc(O)c2c(c1)OC(C)(C)[C@@H]1CC=C(C(=O)O)C[C@@H]21` (single isomer, unassigned) [D-isomer of ajulemic acid], the “potency of D-isomer compared to L-isomer of ajulemic acid” value in experiment [1] was “marked decrease in the potency”.
As to `CCCCCc1cc(O)c2c(c1)OC(C)(C)[C@@H]1CC=C(C(=O)O)C[C@@H]21` [THC-11-oic acid], the IC50 in experiment [2] amounted to 20 µM. For the same molecule, the “Percent inhibition of human cancer cell line growth” value was determined as 5 ± 1% in experiment [3]; 0% in [4]; 14 ± 3% in experiment [5]; 61 ± 2% in [6]; 2 ± 1% in [7] (25 μM); 21 ± 12% in experiment [8]. Besides, the “Percent inhibition of human cancer cell line growth” value in [9] amounted to 1 ± 1%; in [10] it was 19 ± 5%; in experiment [11], 7 ± 3%; in experiment [12], 1 ± 1%. Besides, in [13] (25 μM, 48 hours, mean over the ten human lines), the “inhibition levels (mean±SD)” value was determined as 13.1±18.5%. Further, the “refractile bodies noted (in words)” value in experiment [14] (C6 glioma cells, 25 μM, 48 hours) is given as “no refractile bodies”.
Take `CCCCCCC(C)(C)c1cc(O)c2c(c1)OC(C)(C)[C@@H]1CC=C(C(=O)O)C[C@@H]21` [ajulemic acid, 1′,1′-dimethylheptyl-Δ^8-THC-11-oic acid]: the inhibition at 25 µM in [2] amounted to 65%; in experiment [3], 54 ± 2%; in experiment [4], 34 ± 1%; in experiment [5] it was 60 ± 2%; in experiment [6], 76 ± 1%; in experiment [7], 60 ± 2%. Besides, the inhibition at 25 µM in experiment [8] was 60 ± 2%; in [9], 57 ± 3%; in experiment [10] it was 69 ± 3%; in experiment [11], 74 ± 2%; in experiment [12], 69 ± 2%; in experiment [13] (setting [23]), 61.3 ± 12.1%. This molecule came in with an inhibition at 25 µM in experiment [15] of 44%. For the same molecule, in experiment [2] (C6 glioma), the half-maximal inhibitory concentration (IC50) amounted to 55 µM. The “effectiveness compared to THC” value in [13] (25 μM, p<0.05, in six of the ten lines tested) is “significantly more effective”. Also, in experiment [16], the “change of effect on co-incubation with CB1 antagonist (in words)” value was “slight potentiation”. In experiment [17] (two days), the “rate of apoptosis (sub-G0 cells)” value is “not increased”. Moreover, the “G0/G1 (mean % ± SD)” value in experiment [17] (setting [24]) worked out at 39.1 ± 1.3 %. Moreover, the entries for the “G2/M (mean % ± SD)” value in experiment [17] (setting [24]) and in [17] (setting [25]) were 32.3% and 32.3 ± 3.0 %, respectively. For the same molecule, the entries for the “S (mean % ± SD)” value in experiment [17] (setting [24]) and in [17] (setting [25]) were 13.0% and 13.0 ± 2.3 %, respectively. Moreover, in [14], the “cells with one or more refractile bodies” value was 83%. The “mean number of refractile bodies per cell” value in [14] amounted to 1.78±1.6 per cell. The cell size entry in experiment [14] (after 48 hours of exposure) is “marked increase in cell size”. For the same molecule, the “refractile bodies noted (in words)” value in [18] is listed as “no refractile bodies”. The “recovery upon drug removal” value in experiment [19] was “recover quickly upon drug removal”. In addition, the “state of treated cells under electron microscopy” value in experiment [19] is given as “neither apoptotic nor necrotic”. For the same molecule, in experiment [19] (treated cells), the “viability rate by trypan blue exclusion” value is recorded as over 95%. In experiment [20], the “content of tri- and di-glyceride versus controls” value is “over three-fold greater”. Further, the “neutral lipids versus basal levels” value in experiment [20] (p<0.05 vs control, FIG. 3) is “significant increase above basal levels”. Also, the “onset of PKC activity increase” value in [21] was “increased within five minutes”. In addition, the “PKC activity versus control” value in experiment [21] (for one hour) is on record as “approximately two-fold above that of control”. In addition, the “appearance and size of tumors (in words)” value in experiment [22] (0.1 mg/kg thrice weekly, FIG. 4) was “delay in both the appearance and size of tumors”. Further, the mean tumor diameter in experiment [22] (day 25 post-inoculation, 0.1 mg/kg oral thrice weekly, n=5, p=0.015) is given as 3.8±8.5 mm.
Turning to `CCCCCc1cc(O)c2c(c1)OC(C)(C)[C@@H]1CCC(C)=C[C@@H]21` [Δ^9-THC, tetrahydrocannabinol], the inhibition at 25 µM in experiment [2] was 50%; in [3], 20 ± 5%; in [4], 0%; in experiment [5], 39 ± 5%; in [6] it was 42 ± 5%; in experiment [7], 52 ± 5%. Besides, the inhibition at 25 µM came to 23 ± 5% in [8]; 63 ± 6% in [9]; 28 ± 5% in [10]; 55 ± 7% in experiment [11]; 72 ± 2% in experiment [12]; 39.4 ± 22% in experiment [13] (setting [23]). The molecule further had an inhibition at 25 µM in experiment [15] of 66%. The half-maximal inhibitory concentration (IC50) in experiment [2] (C6 glioma) came to 10 µM. In experiment [16], the “decrease in potency on co-incubation with CB1 antagonist” value was 150%. In addition, the “cells with one or more refractile bodies” value in experiment [14] turned out to be 27%. The “mean number of refractile bodies per cell” value in [14] is recorded as 0.22±0.5 per cell.
